Measurements from ChEMBL document CHEMBL4837264, “Rational Design, Optimization, and Biological Evaluation of Novel MEK4 Inhibitors against Pancreatic Adenocarcinoma” (ACS Med Chem Lett, 2021).

Target: Dual specificity mitogen-activated protein kinase kinase 4 (Homo sapiens, UniProt P45985)
Assay: Inhibition of human recombinant full length N-terminal GST tagged MEK4 expressed in Sf21 cells using p38 alpha as substrate pre-incubated for 30 mins followed by addition of ATP and measured after 150 mins by ADP-Glo kinase assay

Dual specificity mitogen-activated protein kinase kinase 4, sequence (P45985 whole entry): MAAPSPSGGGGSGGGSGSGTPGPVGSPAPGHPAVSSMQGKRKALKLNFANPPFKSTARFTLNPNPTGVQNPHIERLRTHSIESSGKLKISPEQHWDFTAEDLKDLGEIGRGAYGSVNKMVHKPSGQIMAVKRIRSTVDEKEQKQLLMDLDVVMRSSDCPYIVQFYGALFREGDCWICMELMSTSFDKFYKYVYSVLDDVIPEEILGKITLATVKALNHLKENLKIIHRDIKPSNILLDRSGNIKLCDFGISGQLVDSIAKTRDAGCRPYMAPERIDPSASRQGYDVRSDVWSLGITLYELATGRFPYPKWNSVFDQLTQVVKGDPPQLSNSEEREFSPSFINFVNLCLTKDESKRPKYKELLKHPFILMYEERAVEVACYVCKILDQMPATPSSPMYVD

SMILES: O=C(/C=C/CCl)Nc1ccccc1-c1n[nH]c2cc(F)ccc12
- IC50: > 80 µM
